In patent publication US10150773B2, “N-substituted 8-[(2,6-difluorobenzyl)oxy]-2,6- dimethylimidazo[1,2-a]pyrazin-3-carboxamide derivatives as stimulators of soluble guanylate cyclase (SGC) for the treatment of cardiovascular diseases” (Bayer Pharma Aktiengesellschaft, priority 2015, dated 2018):

tested on: recombinant guanylate cyclase reporter cell line; experiment: Effect on a recombinant guanylate cyclase reporter cell line; assay type: cell-based; conditions: in some cases mean values from individual determinations
Experimental: B-2. Effect on a Recombinant Guanylate Cyclase Reporter Cell Line
The cellular activity of the compounds according to the invention is determined using a recombinant guanylate cyclase reporter cell line, as described in F. Wunder et al., Anal. Biochem. 339, 104-112 (2005).
Representative MEC values (MEC=minimum effective concentration) for the compounds of the invention are shown in the table below (in some cases as mean values from individual determinations): […]

Compared with `Cc1cn2c(C(=O)NC(C)(CO)c3nnn(C(F)F)n3)c(C)nc2c(OCc2c(F)cccc2F)n1` (racemic) [Example 2, rac-8-[(2,6-Difluorobenzyl)oxy]-N-{2-[2-(difluoromethyl)-2H-tetrazol-5-yl]-1-hydroxypropan-2-yl}-2,6-dimethylimidazo[1,2-a]pyrazine-3-carboxamide], `Cc1cn2c(C(=O)N[C@@](C)(CO)c3nnc(C)s3)c(C)nc2c(OCc2c(F)cccc2F)n1` [Example 1, ent-8-[(2,6-Difluorobenzyl)oxy]-N-[(2S)-1-hydroxy-2-(5-methyl-1,3,4-thiadiazol-2-yl)propan-2-yl]-2,6-dimethylimidazo[1,2-a]pyrazine-3-carboxamide] is 6.5-fold higher in “MEC (minimum effective concentration)” value: 0.10 µM for the first, 0.65 µM for the second.

Going from `[2H]C([2H])([2H])CC(C)(N)CNC(=O)c1c(C)nc2c(OCc3c(F)cccc3F)nc(C)cn12` (single isomer, unassigned; enantiomer a) [Example 3, ent-N-[2-Amino-2-methyl(4,4,4-^2H3)butyl]-8-[(2,6-difluorobenzyl)oxy]-2,6-dimethylimidazo[1,2-a]pyrazine-3-carboxamide (Enantiomer A)] to `Cc1cn2c(C(=O)NCC(C)(N)CC[Si](C)(C)C)c(C)nc2c(OCc2c(F)cccc2F)n1` (single isomer, unassigned; enantiomer a) [Example 4, ent-N-[2-Amino-2-methyl-4-(trimethylsilyl)butyl]-8-[(2,6-difluorobenzyl)oxy]-2,6-dimethylimidazo[1,2-a]pyrazine-3-carboxamide (Enantiomer A)], the “MEC (minimum effective concentration)” value rises from 0.65 µM to 1.0 µM (1.5-fold).

With `Cc1cn2c(C(=O)NCC(C)(N)CC[Si](C)(C)C)c(C)nc2c(OCc2c(F)cccc2F)n1` (single isomer, unassigned; enantiomer b) [Example 5, ent-N-[2-Amino-2-methyl-4-(trimethylsilyl)butyl]-8-[(2,6-difluorobenzyl)oxy]-2,6-dimethylimidazo[1,2-a]pyrazine-3-carboxamide (Enantiomer B)] the “MEC (minimum effective concentration)” value was 1.0 µM.
